The source of these data is patent US20230257393A1, “MACROMOLECULE-SUPPORTED THIENOAZEPINE COMPOUNDS, AND USES THEREOF” (BOLT BIOTHERAPEUTICS, INC., priority 2020, published 2023).

Where two headings read alike, the source gives them in different places.

For one experiment, the target named is T1, human TLR7 (Homo sapiens, UniProt Q9NYK1).
T1 construct: host or cells: HEK293 reporter cells
T1 sequence (Q9NYK1 27-1049): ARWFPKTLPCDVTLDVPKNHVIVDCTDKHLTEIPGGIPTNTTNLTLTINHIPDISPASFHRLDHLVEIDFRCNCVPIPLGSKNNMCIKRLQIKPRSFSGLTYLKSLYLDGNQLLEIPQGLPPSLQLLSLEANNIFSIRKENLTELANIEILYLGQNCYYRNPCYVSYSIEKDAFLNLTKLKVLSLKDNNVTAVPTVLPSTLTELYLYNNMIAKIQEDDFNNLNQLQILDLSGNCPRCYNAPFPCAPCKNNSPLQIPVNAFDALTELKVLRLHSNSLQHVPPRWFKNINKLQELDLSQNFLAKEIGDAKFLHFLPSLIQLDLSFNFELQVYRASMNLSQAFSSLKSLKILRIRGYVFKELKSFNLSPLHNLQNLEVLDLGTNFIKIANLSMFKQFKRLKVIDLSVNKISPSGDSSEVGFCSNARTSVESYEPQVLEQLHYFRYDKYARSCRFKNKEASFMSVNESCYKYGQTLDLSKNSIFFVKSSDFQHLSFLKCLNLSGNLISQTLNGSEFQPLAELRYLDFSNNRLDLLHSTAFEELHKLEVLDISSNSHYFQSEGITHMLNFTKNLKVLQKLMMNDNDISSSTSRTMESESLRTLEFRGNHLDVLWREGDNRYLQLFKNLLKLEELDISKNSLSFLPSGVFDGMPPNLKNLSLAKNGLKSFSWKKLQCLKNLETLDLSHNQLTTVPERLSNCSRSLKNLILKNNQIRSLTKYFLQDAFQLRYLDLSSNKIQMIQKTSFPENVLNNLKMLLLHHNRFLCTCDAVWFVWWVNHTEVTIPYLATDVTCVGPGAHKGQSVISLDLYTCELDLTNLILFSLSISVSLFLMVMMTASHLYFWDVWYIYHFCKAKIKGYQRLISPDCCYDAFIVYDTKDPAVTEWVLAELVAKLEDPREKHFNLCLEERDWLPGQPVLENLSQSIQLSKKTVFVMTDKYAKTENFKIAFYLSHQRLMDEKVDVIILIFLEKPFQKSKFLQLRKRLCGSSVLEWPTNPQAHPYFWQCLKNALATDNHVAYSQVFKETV
The experiment is described as follows: HEK Reporter Assay, HEK293 NFKB reporter cells expressing human TLR7. To be noted: read-out: HEK293 hTLR7 EC50. The class given is cell-based. As for the experimental part: (§1) Each compound was synthesized, purified, and characterized by mass spectrometry and shown to have the mass indicated. Additional experimental procedures are found in the Examples. Activity against HEK293 NFKB reporter cells expressing human TLR7 or human TLR8 was measured according to Example 202.
(§2) HEK293 reporter cells expressing human TLR7 or human TLR8 were purchased from Invivogen and vendor protocols were followed for cellular propagation and experimentation. Briefly, cells were grown to 80-85% confluence at 5% CO2 in DMEM supplemented with 10% FBS, Zeocin, and Blasticidin. Cells were then seeded in 96-well flat plates at 4×10^4 cells/well with substrate containing HEK detection medium and immunostimulatory molecules. Activity was measured using a plate reader at 620-655 nm wavelength.
(In general: A reporter such as luciferase makes a cellular process visible.)

A further experiment addresses T2, human TLR8 (Homo sapiens, UniProt Q9NR97).
T2 construct: host or cells: HEK293 reporter cells
T2 sequence (Q9NR97 27-1041): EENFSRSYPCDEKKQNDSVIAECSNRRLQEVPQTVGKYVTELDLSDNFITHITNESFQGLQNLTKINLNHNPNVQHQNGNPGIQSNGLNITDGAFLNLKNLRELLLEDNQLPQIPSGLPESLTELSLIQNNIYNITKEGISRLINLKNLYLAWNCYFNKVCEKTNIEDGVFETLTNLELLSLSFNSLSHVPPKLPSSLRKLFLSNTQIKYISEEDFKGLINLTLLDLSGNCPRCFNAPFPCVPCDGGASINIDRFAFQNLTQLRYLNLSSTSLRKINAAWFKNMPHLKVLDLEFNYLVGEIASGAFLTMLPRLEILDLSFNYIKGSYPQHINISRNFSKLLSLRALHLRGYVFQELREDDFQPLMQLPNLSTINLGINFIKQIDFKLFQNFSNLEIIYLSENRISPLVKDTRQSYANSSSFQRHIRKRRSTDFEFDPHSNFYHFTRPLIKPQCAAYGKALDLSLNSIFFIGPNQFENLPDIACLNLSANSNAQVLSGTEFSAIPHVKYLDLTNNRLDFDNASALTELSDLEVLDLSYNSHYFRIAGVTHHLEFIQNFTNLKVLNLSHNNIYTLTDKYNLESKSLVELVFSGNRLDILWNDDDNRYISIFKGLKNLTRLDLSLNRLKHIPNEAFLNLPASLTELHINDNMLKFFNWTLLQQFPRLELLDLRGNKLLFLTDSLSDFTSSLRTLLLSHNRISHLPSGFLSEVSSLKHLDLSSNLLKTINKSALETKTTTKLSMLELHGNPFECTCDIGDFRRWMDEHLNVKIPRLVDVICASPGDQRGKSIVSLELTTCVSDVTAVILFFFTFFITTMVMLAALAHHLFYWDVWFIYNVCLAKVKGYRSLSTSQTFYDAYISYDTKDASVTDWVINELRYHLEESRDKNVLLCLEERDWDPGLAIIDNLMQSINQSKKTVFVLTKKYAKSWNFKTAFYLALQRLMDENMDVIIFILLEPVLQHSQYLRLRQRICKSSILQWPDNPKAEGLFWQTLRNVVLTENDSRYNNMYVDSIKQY
The experiment in a line: HEK Reporter Assay, HEK293 NFKB reporter cells expressing human TLR8. The class given is cell-based. To be noted: read-out: HEK293 hTLR8 EC50. Here is the method:
as §1, §2

In the case of `CCCN(Cc1cnc(CN(C)C)c(C(F)(F)F)c1)C(=O)C1=Cc2sc(CCCCCNC(=O)OC(C)(C)C)cc2N=C(N)C1` [TAZ-128], the EC50 at human TLR7 (Table 1c) and at human TLR8 (Table 1c) was no less than 9 µM each time.

On to `CCCN(CCC)C(=O)C1=Cc2sc(C(=O)O)cc2N=C(N)C1` [TAZ-22, 5-amino-7-(dipropylcarbamoyl)-6H-thieno[3,2-b]azepine-2-carboxylic acid], for which the EC50 at human TLR7 (Table 1a) and on human TLR8 (Table 1a) was greater than 9 µM each time. On to `CCCN(CCCNC(=O)OC1CCC1)C(=O)C1=Cc2sc(C#CC3CNC3)cc2N=C(N)C1` [TAZ-192], for which the 50% effective concentration (EC50) (as a rule, the concentration giving half of the maximal effect) is 0.824 µM on human TLR7 (Table 1c) and 3.48 µM on human TLR8 (Table 1c). As for `CCCN(CCC)C(=O)C1=Cc2sc(COCCNC(=O)OC(C)(C)C)cc2N=C(N)C1` [TAZ-80], the EC50 on human TLR7 (Table 1b) was 4 µM; on human TLR8 (Table 1b), 3.79 µM. In the case of `CCCN(CCC)C(=O)C1=Cc2sc(-c3cn[nH]c3)cc2N=C(N)C1` [TAZ-21, 5-amino-N,N-dipropyl-2-(1H-pyrazol-4-yl)-6H-thieno[3,2-b]azepine-7-carboxamide], the EC50 on human TLR7 (Table 1a) and at human TLR8 (Table 1a) was greater than 9 µM each time. With `CCCN(CCC)C(=O)C1=Cc2sc(-c3cccc(S(=O)(=O)N4CC(CO)C4)c3)cc2N=C(N)C1` [TAZ-4, 5-amino-2-[3-[3-(hydroxymethyl)azetidin-1-yl]sulfonylphenyl]-N,N-dipropyl-6H-thieno[3,2-b]azepine-7-carboxamide], the concentration giving a half-maximal response (EC50) at human TLR7 (Table 1a) and on human TLR8 (Table 1a) was greater than 9 µM throughout. As for `CCCN(CCCNC(=O)OC(C)(C)C)C(=O)C1=Cc2sc(Br)cc2N=C(N)C1` [TAZ-9, tert-butyl N-[3-[(5-amino-2-bromo-6H-thieno[3,2-b]azepine-7-carbonyl)-propyl-amino]propyl]carbamate], the EC50 at human TLR7 (Table 1a) and on human TLR8 (Table 1a) was greater than 9 µM throughout.

For `CCCN(CCC)C(=O)C1=Cc2sc(CCCCCNC(=O)OC(C)(C)C)cc2N=C(N)C1` [TAZ-13, tert-butyl N-[5-[5-amino-7-(dipropylcarbamoyl)-6H-thieno[3,2-b]azepin-2-yl]pentyl]carbamate], the concentration for a half-maximal effect (EC50) on human TLR7 (Table 1a) and on human TLR8 (Table 1a) was greater than 9 µM throughout. `CCCN(CCC)C(=O)C1=Cc2sc(CC(=O)NCCN)cc2N=C(N)C1` [TAZ-120]: the EC50 on human TLR7 (Table 1c) and on human TLR8 (Table 1c) was no less than 9 µM in each case. With `CCCN(CCCc1ccc(CN2CCNCC2)cc1)C(=O)C1=Cc2sccc2N=C(N)C1` [TAZ-37], the results for the EC50 at human TLR7 (Table 1b) and at human TLR8 (Table 1b) were greater than 9 µM and 2.94 µM, respectively. `CCCN(OCC)C(=O)C1=Cc2sc(CN3CCCN(C(=O)OC(C)(C)C)CC3)cc2N=C(N)C1` [TAZ-226]: the concentration giving a half-maximal response (EC50) on human TLR7 (Table 1c) was found to be 0.436 µM; at human TLR8 (Table 1c), 4.43 µM. As to `CCCN(CCC)C(=O)C1=Cc2sc3ccccc3c2N=C(N)C1` [TAZ-28, 2-amino-N,N-dipropyl-3H-benzo[4,5]thieno[3,2-b]azepine-4-carboxamide], the EC50 on human TLR7 (Table 1a) and on human TLR8 (Table 1a) was greater than 9 µM throughout. Regarding `CCCN(CCC)C(=O)C1=Cc2sc(Br)cc2N=C(N)C1` [TAZ-1, 5-amino-2-bromo-N,N-dipropyl-6H-thieno[3,2-b]azepine-7-carboxamide], the half-maximal effective concentration (EC50) at human TLR7 (Table 1a) and at human TLR8 (Table 1a) was greater than 9 µM throughout. Regarding `CCONC(=O)C1=Cc2sc(CC3CNC3)cc2N=C(N)C1` [TAZ-250], the EC50 at human TLR7 (Table 1c) and at human TLR8 (Table 1c) was no less than 9 µM each time. As to `CCCN(CCC)C(=O)C1=Cc2sc(-c3cnn(S(=O)(=O)N4CC(CO)C4)c3)cc2N=C(N)C1` [TAZ-12, 5-amino-2-[1-[3-(hydroxymethyl)azetidin-1-yl]sulfonylpyrazol-4-yl]-N,N-dipropyl-6H-thieno[3,2-b]azepine-7-carboxamide], the EC50 on human TLR7 (Table 1a) and at human TLR8 (Table 1a) was greater than 9 µM throughout. With `CCCN(OCC)C(=O)C1=Cc2sc(CN3CC4(CNC4)C3)cc2N=C(N)C1` [TAZ-207], the EC50 on human TLR7 (Table 1c) and at human TLR8 (Table 1c) was no less than 9 µM each time. As for `CCCN(CCC)C(=O)C1=Cc2sc(-c3cnn(COCC[Si](C)(C)C)c3)cc2N=C(N)C1` [TAZ-19, 5-amino-N,N-dipropyl-2-(1-((2-(trimethylsilyl)ethoxy)methyl)-1H-pyrazol-4-yl)-6H-thieno[3,2-b]azepine-7-carboxamide], the EC50 on human TLR7 (Table 1a) and on human TLR8 (Table 1a) was greater than 9 µM throughout. `CCCN(CCC)C(=O)C1=Cc2sc(Cc3ccccc3)cc2N=C(N)C1` [TAZ-26, 5-amino-2-benzyl-N,N-dipropyl-6H-thieno[3,2-b] azepine-7-carboxamide]: the concentration for a half-maximal effect (EC50) on human TLR7 (Table 1a) and at human TLR8 (Table 1a) was greater than 9 µM each time.

For the compound `CCCN(CCC)C(=O)C1=Cc2sc(C)cc2N=C(N)C1` [TAZ-7, 5-amino-2-methyl-N,N-dipropyl-6H-thieno[3,2-b]azepine-7-carboxamide], the half-maximal effective concentration (EC50) at human TLR7 (Table 1a) and on human TLR8 (Table 1a) was greater than 9 µM each time. On to `CCCN(CCCN)C(=O)C1=Cc2sccc2N=C(N)C1` [TAZ-11, 5-amino-N-(3-aminopropyl)-N-propyl-6H-thieno[3,2-b]azepine-7-carboxamide], for which the EC50 at human TLR7 (Table 1a) and at human TLR8 (Table 1a) was greater than 9 µM in each case.

As for `CCCN(Cc1ccc(CN(C)C)c(C(F)(F)F)n1)C(=O)C1=Cc2sc(CCCCCNC(=O)OC(C)(C)C)cc2N=C(N)C1` [TAZ-146], the half-maximal effective concentration (EC50) at human TLR7 (Table 1c) and at human TLR8 (Table 1c) was no less than 9 µM in each case.

With `CCCN(CCC)C(=O)C1=Cc2sc(C(=O)OC)cc2N=C(N)C1` [TAZ-20, methyl 5-amino-7-(dipropylcarbamoyl)-6H-thieno[3,2-b]azepine-2-carboxylate], the EC50 at human TLR7 (Table 1a) and on human TLR8 (Table 1a) was greater than 9 µM each time.

`CCCN(CCC)C(=O)C1=Cc2sc(C(=O)Nc3cncnc3)cc2N=C(N)C1` [TAZ-27, 5-amino-N7,N7-dipropyl-N2-pyrimidin-5-yl-6H-thieno[3,2-b]azepine-2,7-dicarboxamide]: the EC50 at human TLR7 (Table 1a) and on human TLR8 (Table 1a) was greater than 9 µM throughout. In the case of `CN(C)Cc1ccc(CN(CCC(F)(F)F)C(=O)C2=Cc3sc(CCCCCN)cc3N=C(N)C2)cc1` [TAZ-117], the EC50 on human TLR7 (Table 1c) and on human TLR8 (Table 1c) was no less than 9 µM each time. With `CCCN(CCC)C(=O)C1=Cc2sc(C(=O)Nc3ccc(N4CCC(C(=O)NCCNC(=O)OC(C)(C)C)CC4)nc3)cc2N=C(N)C1` [TAZ-3, tert-butyl (2-(1-(5-(5-amino-7-(dipropylcarbamoyl)-6H-thieno[3,2-b]azepine-2-carboxamido)pyridin-2-yl)piperidine-4-carboxamido)ethyl)carbamate], the EC50 at human TLR7 (Table 1a) and on human TLR8 (Table 1a) was greater than 9 µM in each case. Consider `CCCN(CCCNC(=O)OC1CCC1)C(=O)C1=Cc2sc(CCC3CNC3)cc2N=C(N)C1` [TAZ-197], for which the EC50 on human TLR8 (Table 1c) was no less than 9 µM.
